{"source": "patent US12023345B2", "about": "“Compositions and methods for treating lysosomal disorders” (RUSH UNIVERSITY MEDICAL CENTER, priority 2014, dated 2024)", "key": {"Tfeb [1]": {"test_system": "Tfeb", "test": "TFEB mRNA by semi-quantitative RT-PCR in mouse primary astrocytes", "assay_type": "cell-based", "details": "different concentrations, 5 hr, serum-free", "experimental": "Semi-Quantitative Reverse Transcriptase-Coupled Polymerase Chain Reaction (RT-PCR): Total RNA was isolated from mouse primary astrocytes and human primary astrocytes using RNA-Easy Qiagen (Valencia, CA) kit following manufactures protocol. Semi-quantitative RTPCR was carried out as described earlier (28) using oligo (dT) 12-18 as primer and moloney murine leukemia virus reverse transcriptase (MMLV-RT, Invitrogen) in a 20 μl reaction mixture. The resulting cDNA was appropriately amplified using Promega Master Mix (Madison, WI) and the following primers (Invitrogen) for murine genes: […]\nAmplified products were electrophoresed on 2% agarose (Invitrogen) gels and visualized by ethidium bromide (Invitrogen) staining. Glyceraldehyde-3-phosphate dehydrogenase (Gapdh) mRNA was used as a loading control to ascertain that an equivalent amount of cDNA was synthesized from each sample.\nMouse primary astrocytes were incubated with different concentrations (see FIG. 9) of simvastatin and pravastatin (A), (B), cinnamic acid (C), and sodium phenylbutyrate and sodium benzoate (D) for 5 hr. under serum-free condition followed by monitoring the mRNA expression of TFEB by semi-quantitative RT-PCR. Sodium formate (D) was used as a negative control for sodium phenylbutyrate and sodium benzoate."}, "[2]": {"details": "500 mg SAM given together with aspirin 1300 mg; cited from earlier work"}, "TFEB [3]": {"test_system": "TFEB", "details": "cells from patients suffering from LINCL; cited from earlier work"}, "Tfeb [4]": {"test_system": "Tfeb", "test": "Tfeb mRNA by quantitative real-time PCR in mouse primary astrocytes", "assay_type": "cell-based", "details": "serum free media, 12 hrs, single doses or combination", "experimental": "Isolation of Primary Mouse Astroglia: Astroglia were isolated from mixed glial cultures as described (24, 25) according to the procedure of Giulian and Baker (26). Briefly, on day 9, the mixed glial cultures were washed three times with Dulbecco's modified Eagle's medium/F-12 and subjected to shaking at 240 rpm for 2 h at 37° C. on a rotary shaker to remove microglia. After 2 days, the shaking was repeated for 24 h for the removal of oligodendroglia and to ensure the complete removal of all nonastroglial cells. The attached cells were seeded onto new plates for further studies. Quantitative Real-Time PCR: The mRNA quantification was performed using the ABIPrism7700 sequence detection system (Applied Biosystems, Foster City, CA) using SYBR Select master mix (Applied Biosystems). The mRNA expression of the targeted genes was normalized to the level of Gapdh mRNA and data was processed by the ABI Sequence Detection System 1.6 software."}, "TFEB [5]": {"test_system": "TFEB", "details": "cited from earlier work"}}}
{"compound": "O=C(O)C=Cc1ccccc1", "note": "[cinnamic acid]", "values": [{"measurement": "TFEB mRNA expression (semi-quantitative RT-PCR)", "setting": "Tfeb [1]", "value": "upregulation of TFEB mRNA expression"}]}
{"compound": "C[S+](CC[C@H](N)C(=O)[O-])C[C@H]1O[C@@H](n2cnc3c(N)ncnc32)[C@H](O)[C@@H]1O", "note": "(stereo partly shown) [S-adenosyl-methionine]", "values": [{"measurement": "reduction of the amount of stomach damage", "setting": "[2]", "value": 90, "unit": "%"}]}
{"compound": "2-hydroxypropyl-β-cyclodextrin", "values": [{"measurement": "TFEB-mediated clearance of proteolipid aggregates", "setting": "TFEB [3]", "value": "promotes TFEB-mediated clearance of proteolipid aggregates"}]}
{"compound": "Cc1ccc(C)c(OCCCC(C)(C)C(=O)O)c1", "note": "[gemfibrozil]", "values": [{"measurement": "Tfeb mRNA expression (qRT-PCR)", "setting": "Tfeb [4]", "value": "increased expression of Tfeb"}]}
{"compound": "O=c1c(-c2ccc(O)cc2)coc2cc(O)cc(O)c12", "note": "[Genistein, 5,7-dihydroxy-3-(4-hydroxyphenyl)-4H-1-benzopyran-4-one]", "values": [{"measurement": "TFEB levels and activity, lysosomal biogenesis", "setting": "TFEB [5]", "value": "induction of TFEB levels and activity as well as lysosomal biogenesis"}]}
{"compound": "CC1=C(/C=C/C(C)=C/C=C/C(C)=C/C(=O)O)C(C)(C)CCC1", "note": "[ATRA, all-trans retinoic acid]", "values": [{"measurement": "Tfeb mRNA expression (qRT-PCR)", "setting": "Tfeb [4]", "value": "increased expression of Tfeb"}]}
{"compound": "O=C([O-])c1ccccc1.[Na+]", "note": "[sodium benzoate]", "values": [{"measurement": "TFEB mRNA expression (semi-quantitative RT-PCR)", "setting": "Tfeb [1]", "value": "upregulation of TFEB mRNA expression"}]}
